Test results: patent US7078063B2, “Water soluble extract from plant of Solanum genus and the preparation process thereof, and pharmaceutical composition containing the water soluble extract” (G & E Herbal Biotechnology Co., LTD., priority 2003, dated 2006)

Key:
H441 = assay: MTS tetrazolium salt cytotoxicity assay; format: cell-based, human; conditions: 12 hrs
Procedure: Hep3B was incubated in Dulbecco's Modified Eagle's medium (DMEM), while H441 and MCF-7 were incubated in RPMI-1640, both of the media containing 10% fetal bovine serum and 40 mg/L gentamycin.
The cytotoxicity of cancer cells was determined using tetrazolium salt assay (MTS, Mosmann. T., 1983, Immunol. Meth., 65, 55–63), which was conducted for the calorimetric determination of cell viability according to the manufacturer's procedures (CellTiter 96™ AQ, Promega, Madison, USA).
Cells were seeded at 1×10^4 cells/well in a 96-well plate and incubated in 5% CO2 incubator at 37° C. for at least 16 hrs. The water-soluble extract from Solanum incanum L. was dissolved in sterile injection water to give different test concentrations, which were added to each cancer-cell incubating medium in the well, and allowed to react for 12 hrs. 20 μl MTS was then added to each well, and the solution was allowed to react for 3 hrs. Upon completion of the reaction, absorbency in each well was determined at 490 nm by using ELISA reader 312e, Bio-TEK. Each value was expressed as means ±SD from three experiments.
Cytotoxicity was determined by MTS tetrazolium salt assay disclosed in Pharmacological assay 1. […] Data were expressed as means ±SD from three experiments.

dissolving in water = format: physicochemical
[1] = dried powders, without being pre-treated with DMSO
[2] = purified from the water-soluble extract by HPLC

Structure (SMILES)	inhibiting the growth of H441 (H441)	dissolving in water (dissolving in water; [1])	dissolving in water (dissolving in water; [2])
C[C@@H]1CC[C@@]2(NC1)O[C@H]1C[C@H]3[C@@H]4CC=C5C[C@@H](O[C@@H]6O[C@H](CO)[C@@H](O[C@@H]7O[C@@H](C)[C@H](O)[C@@H](O)[C@H]7O)[C@H](O)[C@H]6O[C@@H]6O[C@@H](C)[C@H](O)[C@@H](O)[C@H]6O)CC[C@]5(C)[C@H]4CC[C@]3(C)[C@H]1[C@@H]2C [solamargine]	effectively inhibited	could not dissolve in water	directly dissolved in water
C[C@@H]1CC[C@@]2(NC1)O[C@H]1C[C@H]3[C@@H]4CC=C5C[C@@H](O[C@@H]6O[C@H](CO)[C@H](O)[C@H](O[C@@H]7O[C@H](CO)[C@@H](O)[C@H](O)[C@H]7O)[C@H]6O[C@@H]6O[C@@H](C)[C@H](O)[C@@H](O)[C@H]6O)CC[C@]5(C)[C@H]4CC[C@]3(C)[C@H]1[C@@H]2C [solasonine]	effectively inhibited	could not dissolve in water	directly dissolved in water
